{"source": "patent US4670434A", "about": "“(2-oxo-3-methylene-1,2,3,5-tetrahydroimidazo[2,1-b]q uinazolinyl)oxyalkylamides useful as cyclic AMP phosphodiesterase inhibitors” (Syntex (U.S.A.) Inc., priority 1985, dated 1987)", "key": {"[1]": {"test_system": "Human platelet cyclic AMP phosphodiesterase", "experiment": "Cyclic AMP phosphodiesterase assay", "assay_type": "biochemical", "details": "1 μM cyclic AMP as substrate; human platelet enzyme; read-out: IC50 value, inhibition of cyclic AMP phosphodiesterase", "protocol": "(§1) Cyclic AMP phosphodiesterase activity and inhibition of platelet aggregation were determined as follows.\nCyclic AMP phosphodiesterase assay\nThe inhibition of cyclic AMP phosphodiesterase activity by the subject compounds was assayed by the method of Filburn and Karn, Analyt. Biochem., 52: 505-516 (1973), using 1 μM cyclic AMP as the substrate. Human platelet cyclic AMP phosphodiesterase was obtained from human donors. Platelets were isolated and washed by centrifugation, the membranes ruptured by a sequential freeze-thaw procedure and hypotonic lysis and the soluble enzyme isolated by high speed centrifugation. The enzyme was stored in aliquots at -20° C."}, "human platelets": {"test_system": "human platelets", "experiment": "Platelet aggregation (turbidimetric)", "assay_type": "cell-based", "details": "platelet rich plasma", "protocol": "as §1\nBlood was collected into evacuated tubes containing sodium citrate (30 mM). Platelet rich plasma was collected after centrifugation. Aggregation was followed by a turbidimetric procedure described by G. V. R. Born, J. Physiol., Lond., 162: 67P-68P (1962)."}, "Mongrel dogs": {"test_system": "Mongrel dogs", "experiment": "Inotropic activity in anesthetized mongrel dogs", "assay_type": "in vivo", "details": "intravenous, anesthetized dog", "protocol": "The inotropic activity of these compounds was determined as follows: Mongrel dogs were anesthetized i.v. with 35 mg/Kg sodium pentobarbital and supplemented as needed. Blood pressure was measured with a Statham pressure transducer via a cannula inserted from a femoral artery into the abdominal aorta. Heart rate was recorded by a cardiotachometer from a lead II electrocardiogram. Right ventricular contractile force was recorded from a Walton-Brodie strain gauge sutured to the right ventricle following a midsternal thoracotomy. A Harvard respirator was used to ventilate the dogs with room air through an endotracheal tube. The dog was bilaterally vagotomized. Following a midline laparotomy, a cannula was sutured into the duodenum for intraduodenal administration of test compound. A femoral vein was cannulated for administration of isoproterenol. All data were recorded on a Beckman R611 Dynograph.\nTo assess the responsiveness of each dog, isoproterenol was given i.v. at half-log interval doses from 0.007 to 2.1 or 6.67 μg/Kg. The test compound, N-cyclohexyl-N-methyl-4-(2-oxo-3-methylene-1,2,3,5-tetrahydroimidazo-[2,1- b]quinazolin-7-yl)oxybutanamide, was then administered intravenously at dose levels from 0.1 to 1.0 mg/Kg."}}, "data": [{"smiles": "C=c1c(=O)[nH]c2n1Cc1cc(OCCCC(=O)N(C)C3CCCCC3)ccc1N=2", "note": "[N-cyclohexyl-N-methyl-4-(2-oxo-3-methylene-1,2,3,5-tetrahydroimidazo[2,1-b]quinazolin-7-yl)oxybutanamide]", "values": [{"measurement": "IC50", "setting": "[1]", "value": 2.7, "unit": "nM"}, {"measurement": "IC50", "setting": "human platelets", "value": 150, "unit": "nM"}, {"measurement": "Peak Effects as % of Max. Isoproterenol, Blood Pressure", "setting": "Mongrel dogs; 0.1 mg/kg", "value": "42 % of Max. Isoproterenol"}, {"measurement": "Peak Effects as % of Max. Isoproterenol, Heart Rate", "setting": "Mongrel dogs; 0.1 mg/kg", "value": "18 % of Max. Isoproterenol"}, {"measurement": "Peak Effects as % of Max. Isoproterenol, Rt. Ventricular Contractile Force", "setting": "Mongrel dogs; 0.1 mg/kg", "value": "24 % of Max. Isoproterenol"}, {"measurement": "Peak Effects as % of Max. Isoproterenol, Blood Pressure", "setting": "Mongrel dogs; 0.316 mg/kg", "value": "58 % of Max. Isoproterenol"}, {"measurement": "Peak Effects as % of Max. Isoproterenol, Heart Rate", "setting": "Mongrel dogs; 0.316 mg/kg", "value": "28 % of Max. Isoproterenol"}, {"measurement": "Peak Effects as % of Max. Isoproterenol, Rt. Ventricular Contractile Force", "setting": "Mongrel dogs; 0.316 mg/kg", "value": "52 % of Max. Isoproterenol"}, {"measurement": "Peak Effects as % of Max. Isoproterenol, Blood Pressure", "setting": "Mongrel dogs; 1.0 mg/kg", "value": "65 % of Max. Isoproterenol"}, {"measurement": "Peak Effects as % of Max. Isoproterenol, Heart Rate", "setting": "Mongrel dogs; 1.0 mg/kg", "value": "34 % of Max. Isoproterenol"}, {"measurement": "Peak Effects as % of Max. Isoproterenol, Rt. Ventricular Contractile Force", "setting": "Mongrel dogs; 1.0 mg/kg", "value": "62 % of Max. Isoproterenol"}]}]}
